The values below come from patent US20040210184A1, “Effect of electric field and ultrasound for transdermal drug delivery” (Massachusetts Institute of Technology, priority 1995, published 2004).

Data set [1] is described as follows: Stability of the molecules under electroporating conditions and temperature, measured by fluorescence. In kind it is physicochemical. The following applies: 1 mM solutions under electroporating conditions. As for the experimental part: In order to assess the stability of these molecules during electroporation, calcein and sulphorhodamine solutions (1 mM each) were exposed to electroporating conditions similar to those used in this study. No difference between the intensity of their fluorescence before and after exposure to electric fields could be detected. In addition, these molecules are stable up to a temperature of 100° C. (measured in terms of fluorescence).

The conditions of data set [2]: human, 1 mM, pH 7.4.
Procedure: Full thickness of human cadaver skin (obtained from local hospitals) was heat stripped by immersion in 60° C. water for two minutes followed by the removal of the epidermis. The skin was then stored in a humidified chamber (95% relative humidity) at 4° C. The heat-stripped human epidermis was placed in a custom-made side-by-side permeation chamber, skin area of 0.64 cm^2, designed to adapt an ultrasound transducer at the donor side. The donor compartment was filled with a 1 mM solution of calcein (MW 623, electric charge—4; Sigma Chemicals) (CA) and 1 mM sulphorhodamine (MW 607, electric charge—1; Sigma Chemical) (SR) in 150 mM Phosphate Buffer Saline (PBS; Sigma Chemicals).
The ultrasound probe was inserted into the donor compartment. […]
The fluorometer was set up for dual wavelength measurements (excitation wavelength=488 nm, emission wavelength=515 nm (calcein), and excitation wavelength =586 nm, emission wavelength=607 nm (sulphorhodamine)). […] Transdermal calcein and sulphorhodamine flux was calculated from the fluorescence readings by taking into account parameters such as flow rate, receiver compartment volume, and fluorometer caveat volume. The effluent from the receptor compartment was pumped through a spectrofluorometer (Fluorolog-II-system F112AI SPEX-industries, Edison, N.J.) where the fluorescence of calcein and sulphorhodamine was separately measured twice every minute. […]
The format of data set [3] is in vitro ADME. The source says:
Passive experiments without ultrasound with polyethylene glycol 200 dilaurate (PEG), isopropyl myristate (IM), and glycerol trioleate (GT) result in corticosterone flux enhancement values of only 2, 5, and 0.8, relative to the passive flux from PBS alone. […] These passive flux enhancements were due to (1) the increased corticosterone solubility in the enhancers, and (2) interactions of linoleic acid with the skin. Specifically, linoleic acid increased the corticosterone permeability by nearly 20-fold over that from 50% ethanol alone. […] Ultrasound combined with 50% ethanol produces a 2-fold increase in corticosterone transport above the passive case, but increase by 14-fold the transport from LA/Ethanol.

For data set [4] the following is noted: ethanol as chemical enhancer; cited from earlier work.

`O=S(=O)([O-])c1cc(S(=O)(=O)O)ccc1C1=c2cc3c4c(c2Oc2c1cc1c5c2CCCN5CCC1)CCC[N+]=4CCC3` [sulphorhodamine]: in data set [1], the “difference in fluorescence intensity before and after exposure to electric fields” value was “No difference”.

Consider `O=C(O)CN(CC(=O)O)Cc1cc2c(cc1O)Oc1cc(O)c(CN(CC(=O)O)CC(=O)O)cc1C21OC(=O)c2ccccc21` [calcein], for which the “difference in fluorescence intensity before and after exposure to electric fields” value in data set [1] is “No difference”. In data set [2], the “enhancement: amount transported in the presence of ultrasound-electric field pulsing to that in the presence of electric field pulsing alone” value was found to be 2.

Consider `C[C@]12C[C@H](O)[C@H]3[C@@H](CCC4=CC(=O)CC[C@@]43C)[C@@H]1CC[C@@H]2C(=O)CO` [corticosterone], for which, in data set [3], the flux came out at 0.16 mg/cm^2/hr, the “flux relative to that from PBS alone” value is recorded as 13,000 fold, the “flux with ultrasound relative to the passive flux from the same enhancers” value is on record as 1.3-5.0 and the “permeability increase by linoleic acid over that from 50% ethanol alone” value is on record as about 20 fold.

Regarding `C[C@]12CC[C@@H]3c4ccc(O)cc4CC[C@H]3[C@@H]1CC[C@@H]2O` [estradiol], the “flux increase by ethanol” value in data set [4] is 140 fold.
